Source: patent publication US20260364030A1, “NOVEL SELECTIVE INHIBITORS OF LYSYL OXIDASES” (Syntara Limited, priority 2022, published 2026)
Where two headings read alike, the source gives them in different places.

Experiments:
Assay type in all cases: biochemical
[1] = target: T1, Bovine LOX (Bos taurus, UniProt P33072); experiment: LOX inhibition, hydrogen peroxide Amplex Red oxidation assay
T1 sequence (P33072 170-418): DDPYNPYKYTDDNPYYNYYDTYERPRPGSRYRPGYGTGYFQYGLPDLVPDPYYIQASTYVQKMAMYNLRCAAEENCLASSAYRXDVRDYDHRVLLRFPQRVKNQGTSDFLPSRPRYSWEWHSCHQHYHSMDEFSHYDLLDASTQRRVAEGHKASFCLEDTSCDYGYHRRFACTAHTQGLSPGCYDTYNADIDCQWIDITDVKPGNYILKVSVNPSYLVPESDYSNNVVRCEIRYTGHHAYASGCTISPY
Protocol: (§1) LOX and LOXL protein family members can be acquired as recombinant active proteins from commercial sources, or extracted from animal tissues like bovine aorta, tendons, pig skin; or prepared from cell cultures. The inhibitory effects of the compounds of the present invention were tested against the given LOX or LOXL preparation using a method based on the detection of hydrogen peroxide with an Amplex Red oxidation assay [Zhou et al, 1997]. The assay was developed using either 384 or 96 well format. Briefly, in a standard black, clear bottom 384 well plate assay 25 µL of a dilution of any of the isoenzymes and orthologues in 1.2 M urea, 50 mM sodium borate buffer (pH 8.2) were added into each well in the presence of […] and 0.5 mM pargyline (to inhibit SSAO and MAO-B and MAO-A, respectively; not necessary if the enzyme is from a recombinant or purified form). […] of a reaction mixture containing twice the KM concentration of putrescine (Sigma Aldrich, e.g. 20 mM for LOX and LOXL1 or 10 mM for LOXL2 and 4 mM for LOXL3 and LOXL4), 120 µM Amplex Red (Thermo Fisher Scientific) and 1.5 U/mL horseradish peroxidase (Sigma Aldrich) prepared in 1.2 M urea, 50 mM sodium borate buffer (pH 8.2) were then added to the corresponding wells. The above volumes were doubled in the case of 96 wells plate. The fluorescence (RFU) was read every 2.5 min for 30 min at 37 °C, excitation 544 nm and emission 590 (Optima; BMG labtech). The slope/min of the kinetics for each well was calculated using MARS data analysis software (BMG labtech) and this value was used to deduce the IC50 value (Dotmatics). The ability of the inventive compounds to inhibit the amine oxidase activity of LOX and other family members is shown in Table 5.

[2] = target: T2, LOXL2 (Homo sapiens, UniProt Q9Y4K0); experiment: LOXL2 inhibition, Amplex Red oxidation assay
T2 sequence (Q9Y4K0 26-774): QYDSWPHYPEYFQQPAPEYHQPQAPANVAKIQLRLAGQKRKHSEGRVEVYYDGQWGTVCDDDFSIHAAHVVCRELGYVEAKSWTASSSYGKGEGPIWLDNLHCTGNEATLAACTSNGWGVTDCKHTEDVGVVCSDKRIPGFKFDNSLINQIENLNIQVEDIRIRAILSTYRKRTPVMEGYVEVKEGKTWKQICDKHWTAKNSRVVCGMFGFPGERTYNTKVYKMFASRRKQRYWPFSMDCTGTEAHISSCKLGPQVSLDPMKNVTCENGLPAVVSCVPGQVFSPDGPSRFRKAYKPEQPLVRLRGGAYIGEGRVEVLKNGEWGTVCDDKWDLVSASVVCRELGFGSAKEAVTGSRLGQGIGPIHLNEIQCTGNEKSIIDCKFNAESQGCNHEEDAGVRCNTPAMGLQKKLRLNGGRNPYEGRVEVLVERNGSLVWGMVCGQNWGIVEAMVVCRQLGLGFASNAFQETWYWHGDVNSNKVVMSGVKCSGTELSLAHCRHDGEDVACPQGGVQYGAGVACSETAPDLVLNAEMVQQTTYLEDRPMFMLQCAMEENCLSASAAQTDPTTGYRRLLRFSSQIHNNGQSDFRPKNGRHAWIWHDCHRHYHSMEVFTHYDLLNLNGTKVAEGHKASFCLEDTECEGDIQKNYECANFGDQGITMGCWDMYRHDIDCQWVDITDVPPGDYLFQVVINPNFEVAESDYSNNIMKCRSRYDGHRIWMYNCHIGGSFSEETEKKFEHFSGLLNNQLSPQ
Protocol: as §1

[3] = target: T3, LOXL1 (Homo sapiens, UniProt Q08397); experiment: Jump dilution experiment, sustained inhibition of LOXL1; conditions: for LOXL1 enzyme activity recovery: at 21-30 min after jump dilution, 10×IC50, 40 min preincubation at 37 °C; for Sustained inhibition of LOXL1: jump dilution, 21-30 min
T3 sequence (Q08397 96-574): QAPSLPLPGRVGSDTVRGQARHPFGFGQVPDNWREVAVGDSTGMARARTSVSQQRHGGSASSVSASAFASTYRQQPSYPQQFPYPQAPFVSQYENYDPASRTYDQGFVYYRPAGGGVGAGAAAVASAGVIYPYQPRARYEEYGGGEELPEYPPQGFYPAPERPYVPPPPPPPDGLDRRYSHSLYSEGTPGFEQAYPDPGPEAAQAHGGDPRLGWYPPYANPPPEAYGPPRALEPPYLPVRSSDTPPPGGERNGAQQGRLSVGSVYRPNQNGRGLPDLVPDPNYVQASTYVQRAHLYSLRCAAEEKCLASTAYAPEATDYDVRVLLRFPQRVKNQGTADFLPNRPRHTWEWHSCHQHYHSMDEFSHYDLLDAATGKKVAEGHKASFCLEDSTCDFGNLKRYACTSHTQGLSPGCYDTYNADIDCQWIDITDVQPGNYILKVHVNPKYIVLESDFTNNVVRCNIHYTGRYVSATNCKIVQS
Protocol: (§2) Jump Dilution experiment: The assay was developed using a 96 well format and the starting enzyme concentration was set 100 times higher than for the inhibition studies. The enzyme was incubated for 40 minutes at 37 °C in presence of 10×IC50 concentrations of the test inhibitor. After the incubation, the mixture was diluted 50x in assay buffer, followed by a further 2× dilution in Amplex Red-horseradish peroxidase-putrescine reaction mix (as for Example 2) prior to the fluorescence measurement. Results were expressed in % recovery of the signal at 21-30 min by comparison with non-inhibited controls. LOXL1 is used as a surrogate for LOX owing to similar pharmacological behaviour.

[4] = target: T2, LOXL2; experiment: Jump dilution experiment, sustained inhibition of LOXL2; conditions: for LOXL2 enzyme activity recovery: at 21-30 min after jump dilution, 10×IC50, 40 min preincubation at 37 °C; for Sustained inhibition of LOXL2: jump dilution, 21-30 min
Protocol: as §2

[5] = 30 min incubation with enzyme at 37 °C
[6] = 30 min incubation with enzyme at 37 °C, read-out: Human recombinant LOXL2 Activity IC50

Row | Structure (SMILES) | IC50 [1, 5] | IC50 [2, 6] | LOXL1 enzyme activity recovery [3] | Sustained inhibition of LOXL1 [3] | LOXL2 enzyme activity recovery [4] | Sustained inhibition of LOXL2 [4] | IC50 ([1]; 2 h incubation with enzyme at 37 °C) | IC50 ([2]; 2 h incubation with enzyme at 37 °C, read-out: Human LOXL2 Activity IC50)
1 | N#CCCN [BAPN, β-aminopropionitrile, reference compound] | 2.3 µM | 0.4 µM | 0.3% | sustained inhibition | 11.2% | sustained inhibition |  | 
2 | NC/C(=C\F)CS(=O)(=O)c1ccccc1 [Compound 1, (E)-3-fluoro-2-((phenylsulfonyl)methyl)prop-2-en-1-amine] | 10 µM | 4.8 µM | 2.5% | sustained inhibition | 2.5% | sustained inhibition | < 5 µM | < 2 µM
